Counter-ions that a name gives are not always drawn. Like-named read-outs stand apart in the source and are kept apart here.
System: Mycobacterium tuberculosis H37Rv
Experiment: Mycobacterium tuberculosis H37Rv Inhibition Assay
Assay type: cell-based
Conditions: ATCC 25618 / H37Rv, read-out: MIC value
[1] = H37Rv strain (ATCC25618), Middlebrook 7H9+ADC medium, resazurin fluorescence

SMILES	MIC	MIC [1]
Cc1cc(=O)n2c3c1ccc(=O)n3[C@H](CN1CCC(NCc3cc4c(cn3)OCCS4)CC1)C2 [Example 2, (1R)-1-({4-[(2,3-dihydro[1,4]oxathiino[2,3-c]pyridin-7-ylmethyl)amino]-1-piperidinyl}methyl)-6-methyl-1,2-dihydro-4H,9H-imidazo[1,2,3-ij]-1,8-naphthyridine-4,9-dione hydrochloride]	< 2 µg/mL	
Cc1cc(=O)n2c3c1ccc(=O)n3[C@H](CN1CCC(NCc3cc4c(cn3)OCCC4)CC1)C2 [Example 1, (1R)-1-({4-[(3,4-dihydro-2H-pyrano[2,3-c]pyridin-6-ylmethyl)amino]-1-piperidinyl}methyl)-6-methyl-1,2-dihydro-4H,9H-imidazo[1,2,3-4]-1,8-naphthyridine-4,9-dione hydrochloride]		< 2 µg/mL
Cc1cc(=O)n2c3c1ccc(=O)n3[C@H](CN1CCC(NCc3cc4c(cn3)OCCO4)CC1)C2 [Example 3, (1R)-1-({4-[(2,3-dihydro[1,4]dioxino[2,3-c]pyridin-7-ylmethyl)amino]-1-piperidinyl}methyl)-6-methyl-1,2-dihydro-4H,9H-imidazo[1,2,3-ij]-1,8-naphthyridine-4,9-dione hydrochloride]	> 2.5 µg/mL	
Cc1cc(=O)n2c3c1ccc(=O)n3[C@H](CN1CCC(NCc3cc4c(cn3)OCS4)CC1)C2 [Example 4, (1R)-6-methyl-1-({4-[([1,3]oxathiolo[5,4-c]pyridin-6-ylmethyl)amino]-1-piperidinyl}methyl)-1,2-dihydro-4H,9H-imidazo[1,2,3-4]-1,8-naphthyridine-4,9-dione hydrochloride]		< 2 µg/mL
